Laboratory results: patent US20230270721A1, “INHIBITION OF BAX-MEDIATED CELL DEATH BY ELTROMBOPAG” (Albert Einstein College of Medicine, priority 2020, published 2023)

Key:
BAX [1] = biological target: T1, BAX (Homo sapiens, UniProt Q07812); assay: Liposomal permeabilization (ANTS/DPX release) assay; type: biochemical; settings: for IC50: 30 minutes
T1 construct: Human full-length (1-192) wild-type BAX (Q07812); made in house; host or cells: E. coli BL21 (DE3) CodonPlus (DE3)-RIPL
Method: (§1) Lipids (Avanti Polar Lipids) at the following ratio, phosphatidylcholine 48%, phosphatidylinositol 10%, dioleoyl phosphatidylserine 10%, phosphatidylethanolamine, 28%, and tetraoleoyl cardiolipin 4%, were mixed in a total of 1 mg, dried and resuspended in 10 mM HEPES, pH 7, 200 mM KCI, and 5 mM MgCl2 with 12.5 mM 8-aminonaphthalene-1,3,6-trisulfonic acid (ANTS) dye and 45 mM p-xylene-bis-pyridinium bromide (DPX) quencher (Molecular Probes) using a water bath sonicator. Liposomes were formed by extrusion of the suspension using Avanti Mini-Extruder (Cat # 610000) with polycarbonate membranes of 0.1 µm pore size (Avanti Polar Lipids). ANTS/DPX encapsulated liposomes were purified from non-encapsulated ANTS/DPX by gel filtration of a 10 mL CL2B-Sepharose (GE Healthcare Life Sciences) gravity-flow column. BAX (50-250 nM) was combined with tBID, BIM, and EO at the indicated concentrations to a volume of 90 µL. Reactions were initiated by the addition of 10 pL of the encapsulated ANTS/DPX liposome stock. ANTS/DPX release was quantified based on the increase in fluorescence intensity that occurs when the ANTS fluorophore is separated from the DPX quencher upon release from the liposomes into solution. Fluorescence (λex = 355 nm and λem = 520 nm) was measured at 1 minute intervals at room temperature (22-25° C.) indicated using a Tecan Infinite M1000 plate reader. In the case of heat activation, reactions were set up as described in the absence of tBID or BIM, and experiments were recorded at 42° C. The percentage release of ANTS/DPX at any given time point was calculated as percentage release=((F-F0)/(F100-F0))(100), where F0 and F100 are baseline and maximal fluorescence, respectively. Triton X-100 (1%) was used to determine the maximum amount of liposomal release per assay and was set to 100%.
Next, EO’s capacity to modulate BAX activity was evaluated using liposomal release assays. […] Instead, EO was able to inhibit both tBID- and BIM BH3-mediated BAX activation (FIGS. 1E, 1F, and 1G). Inhibition of tBID-mediated BAX activation by EO was inversely proportional to the concentration of the tBID activator, consistent with competitive inhibition of BH3-activator binding.

BAX [2] = biological target: T1, BAX; assay: Competitive fluorescence polarization binding assay (FPA), BAX / FITC-BIM-SAHB; settings: FITC-BIM-SAHB 25 nM
Method: Fluorescence polarization assays (FPA) were performed as previously described (Gavathiotis, E., et al. Nat Chem Biol 8, 639-645 (2012)). Direct binding isotherms of BIM-SAHB were measured by incubated FITC-BIM-SAHB (25 nM) with serial dilutions of full-length BAX alone or in the presence of 0.5 or 1 µM EO. Competition binding assays were performed by titrating ED into BAX (150 nM) and FITC-BIM-SAHB (25 nM). Measurements were taken at 10-minute intervals over 60 minutes on a TECAN F200 PRO microplate reader. Reported curves represent 10-minute time point. KD values and IC50 were determined using GraphPad Prism nonlinear fit four-parameter agonist or antagonist versus response with restraints for 100% and 0% bound calculated by the mP of saturated BAX + FITC-BIM-SAHB and FITC-BIM-SAHB alone.
To test this hypothesis, a competitive fluorescence polarization assay (FPA) (Gavathiotis, E., et al. Nat Chem Biol 8, 639-645 (2012)) based on the interaction between BAX and fluorescently-labeled stapled BIM-BH3 peptide (FITC-BIM-SAHB) was used (Gavathiotis, E., et al. Nature 455, 1076-1081 (2008)). […] The IC50 and KD are consistent with a competitive binding mechanism of EO displacing FITC-BIM-SAHB from the N-terminal trigger site of BAX.

[3] = system: BAK-/- mouse embryonic fibroblasts (MEFs); assay: Caspase 3/7 assay, STS-induced apoptosis, MEFs expressing only BAX; type: cell-based; settings: 3 µM STS, 6 hr
Text: FIGS. 7A, 7B, 7C, 7D, 7E, and 7F are a set of diagrams showing that eltrombopag inhibits BAX translocation and BAX-mediated apoptosis in cells. […] BAX translocation is based on antibody-based detection of BAX and mitochondrial protein TOMM20. Representative confocal micrographs from three independent biological experiments. Scale bar, 20 µm. […] Data represent ±SEM of three independent biological replicates. Two-sided t test, ****P < 0.0001; ***P < 0.001; **P < 0.01; *P < 0.05; ns, P > 0.05. […] Actin and VDAC are loading controls for cytosolic and mitochondrial fractions, respectively. FIGS. 7D and 7E show a caspase 3/7 assay of BAK-/- mouse embryonic fibroblasts (MEFs) (FIG. 7D) and BAX-/-MEFs (FIG. 7E) in response to 3 µM STS and the presence or absence of various doses of EO for 6 hr. […]
It is important to note that THPO-receptor agonist activity of EO is highly specific to the human and chimpanzee THPO-receptors, making mouse cell lines ideal for studying EO modulation of BAX-dependent activity independent of THPO-mediated effects (Erickson-Miller, C. L. et al. Stem Cells 27, 424-430 (2009)). First, mitochondrial cytochrome c release, a hallmark of BAX activation and BAX-dependent apoptosis, was evaluated. […] Next, mitochondrial translocation of cytosolic BAX upon treatment with either BIM BH3 or staurosporine (STS) in BAK KO MEFs was evaluated.

BAX R134E R145E = biological target: T2, BAX R134E R145E (Homo sapiens, UniProt Q07812, R134E/R145E); assay: Liposomal permeabilization assay, double mutant; type: biochemical; settings: 250 nM BAX and 5 nM tBID; read-out: IC50, inhibition of liposomal release
T2 construct: Human full-length (1-192) wild-type BAX (Q07812); made in house; host or cells: E. coli BL21 (DE3) CodonPlus (DE3)-RIPL
T2 sequence (Q07812 whole entry R134E/R145E): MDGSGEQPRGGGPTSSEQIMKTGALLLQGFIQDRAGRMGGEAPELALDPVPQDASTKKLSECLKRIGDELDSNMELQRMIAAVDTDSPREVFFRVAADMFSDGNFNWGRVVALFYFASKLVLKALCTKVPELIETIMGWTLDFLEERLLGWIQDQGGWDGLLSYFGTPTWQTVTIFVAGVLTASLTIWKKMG
Method: as §1, with “ANTS/DPX encapsulated liposomes were purified from non-encapsulated ANTS/DPX by gel filtration of a 10 mL CL2B-Sepharose (GE Healthcare Life Sciences) gravity-flow column. BAX (50-250 nM) was combined with tBID, BIM, and EO at the indicated concentrations to a volume of 90 µL. Reactions were initiated by the addition of 10 pL of the encapsulated ANTS/DPX liposome stock.” left out, “Triton X-100 (1%) was used to determine the maximum amount of liposomal release per assay and was set to 100%.” left out

T1 sequence (Q07812 whole entry): as the sequence (Q07812 whole entry R134E/R145E) above, with E134R, E145R counted along it

## CC1=NN(c2ccc(C)c(C)c2)C(=O)/C1=N\Nc1cccc(-c2cccc(C(=O)O)c2)c1O [EO, eltrombopag]
BAX [1]; 50 nM BAX and 5 nM tBID, read-out: tBID IC50, inhibition of BAX activity in liposomal release
  IC50: 2.4 µM
BAX [1]; 50 nM BAX, read-out: BIM IC50, inhibition of BAX activity in liposomal release
  IC50: 4.7 µM
BAX [1]; 250 nM BAX at 42° C., read-out: heat IC50, inhibition of BAX activity in liposomal release
  IC50: 4.5 µM
BAX [1]; concentrations up to 10 µM, no activator
  ability to activate BAX in liposomal release assay: no ability to activate BAX
BAX [2]; BAX 150 nM, 10-minute time point, read-out: half-maximal inhibition IC50, competition of FITC-BIM-SAHB
  IC50: 0.207 µM
BAX [2]; direct binding titration of BAX, 0.5 or 1 µM EO
  affinity of BAX for FITC-BIM-SAHB in the presence of EO: decreased affinity
[3]
  STS-induced apoptosis mediated by caspase 3/7 activity: inhibited STS-induced apoptosis
BAX R134E R145E
  IC50: > 10 µM
